From patent US11401279B2, “Pyrido[3,2-d]pyrimidine compounds as immunomodulators” (Incyte Corporation, priority 2019, dated 2022)
Where two headings read alike, the source gives them in different places.

How the values were obtained:
[1] = test system: PD-L1 aAPC/CHO-K1 cells and Jurkat-PD-1-NFAT effector cells; assay: Nuclear factor of activated T-cells (NFAT) assay; format: cell-based; details: luminescence, 24 hours
Method: PD-L1 aAPC/CHO-Klcells (Promega) were maintained in F-12 medium with addition of 10% FBS, 200 μg/mL Hygromycin B, 250 μg/mL Geneticin (G418). Jurkat-PD-1-NFAT effector cells (Promega) were cultured in RPMI 1640 medium supplemented with 10% FBS, 100 μg/mL Hygromycin B, 500 μg/mL G418. The culture media of PD-L1 aAPC/CHO-K1 cells were first replaced with assay medium (RPMI1640 medium with 1% FBS). The PD-L1 aAPC/CHO-Klcells were then added in a white 384-well white clear bottom assay plate (CELLCOAT® Tissue Culture Plates, Greiner Bio-One) at 8000 per well in 10 μL assay medium. Test compounds were prepared by serial dilution in DMSO and 0.8 μL test compounds in DMSO were first transferred to the 384 REMP plate well (Thermofisher) by PlateMate Plus (Thermofisher) followed with addition of 50 μL plating medium. 5 μL compounds in the assay medium were transferred to the cells with 0.4% DMSO in the final assay at 2 μM. After removing the culture media, 10,000 Jurkat-PD-1-NFAT effector cells in 5 μL assay medium was dispensed into each well. The assay plate was incubated at 37° C., 5% CO2 for 24 hours. After the assay plate was equilibrated to room temp for 15 minutes, 20 μL/well of Bio-Glo™ reagent (Promega) were added. After 8 minutes incubation at room temperature, luminescence was read at with Pherastar microplate reader (BMG Labtech). The fold of induction (FOI) was calculated based on the ratio of luminescence normalized to the DMSO wells within each assay plate. The maximum percentage of induction was reported based on the ratio between the highest FOI of each compound and the maximum FOI of control compound within each assay plate. Wells with DMSO were served as the negative controls and wells containing control compound with the highest FOI were used as positive controls. EC50 determination was performed by fitting the curve of percent control activity versus the log of the compound concentration using the GraphPad Prism 6.0 software.

[2] = In vivo pharmacokinetics in rats; design: species or system Sprague Dawley rats; details: rat, cassette dosing; for AUC(0-inf) / Cmax / F: 3.0 mg/kg PO; for Vd: read-out: Vss
Method: For in vivo pharmacokinetic experiments, test compounds were administered to male Sprague Dawley rats or male and female Cynomolgus monkeys intravenously or via oral gavage. For intravenous (IV) dosing, test compounds were dosed at 0.5 to 1 mg/kg using a formulation of 10% dimethylacetamide (DMAC) in acidified saline via IV bolus for rat and 5 min or 10 min IV infusion for monkey. For oral (PO) dosing, test compounds were dosed at 1.0 to 3.0 mg/kg using 5% DMAC in 0.5% methylcellulose in citrate buffer (pH 3.5). Blood samples were collected at predose and various time points up to 24 hours postdose. All blood samples were collected using EDTA as the anticoagulant and centrifuged to obtain plasma samples. The plasma concentrations of test compounds were determined by LC-MS methods. The measured plasma concentrations were used to calculate PK parameters by standard noncompartmental methods using Phoenix® WinNonlin software program (version 7.0, Pharsight Corporation).
In rats and monkeys, cassette dosing of test compounds were conducted to obtain preliminary PK parameters.

[3] = molecular target: PD-1/PD-L1 (Homo sapiens (Human), UniProt Q9NZQ7); assay: Homogeneous Time-Resolved Fluorescence (HTRF) PD-1/PD-L1 binding assay; details: recombinant human PD-1 and PD-L1
Method: The assays were conducted in a standard black 384-well polystyrene plate with a final volume of 20 μL. Inhibitors were first serially diluted in DMSO and then added to the plate wells before the addition of other reaction components. The final concentration of DMSO in the assay was 1%. The assays were carried out at 25° C. in the PBS buffer (pH 7.4) with 0.05% Tween-20 and 0.1% BSA. Recombinant human PD-L1 protein (19-238) with a His-tag at the C-terminus was purchased from AcroBiosystems (PD1-H5229). Recombinant human PD-1 protein (25-167) with Fc tag at the C-terminus was also purchased from AcroBiosystems (PD1-H5257). PD-L1 and PD-1 proteins were diluted in the assay buffer and 10 μL was added to the plate well. Plates were centrifuged and proteins were preincubated with inhibitors for 40 minutes. The incubation was followed by the addition of 10 μL of HTRF detection buffer supplemented with Europium cryptate-labeled anti-human IgG (PerkinElmer-AD0212) specific for Fc and anti-His antibody conjugated to SureLight®-Allophycocyanin (APC, PerkinElmer-AD0059H). After centrifugation, the plate was incubated at 25° C. for 60 min. before reading on a PHERAstar FS plate reader (665 nm/620 nm ratio). Final concentrations in the assay were—3 nM PD1, 10 nM PD-L1, 1 nM europium anti-human IgG and 20 nM anti-His-Allophycocyanin. IC50 determination was performed by fitting the curve of percent control activity versus the log of the inhibitor concentration using the GraphPad Prism 5.0 software.

[4] = test system: U2OS/PD-L1 cells and Jurkat-PD-1-SHP cells; assay: Src homology region 2 domain-containing phosphatase (SHP) assay; format: cell-based; details: PathHunter chemiluminescence, 2 hours
Method: U2OS/PD-L1 cells (DiscoveRx Corporation) were maintained in McCoy's 5A medium with addition of 10% FBS, 0.25 μg/mL Puromycin. After removing the culture media, the cell medium was replaced with assay medium (RPMI1640 medium with 1% FBS). The U2OS/PD-L1 cells were then added in 384-well black clear bottom assay plate (CELLCOAT® Tissue Culture Plates, Greiner Bio-One) at 5000 cells per well in 20 μL assay medium. Test compounds were prepared by serial dilution in DMSO and 125 nL compound were first transferred to the 384 REMP plate well (Thermofisher) by ECHO liquid handler (Labcyte) followed with addition of 27.5 μL assay medium. 5 µL/well compounds in the assay medium were transferred to the cell plate with 0.05% DMSO in the final assay at 0.25 μM. Jurkat-PD-1-SHP cells (DiscoveRx Corporation) were cultured in RPMI1640 medium supplemented with 10% FBS, 250 μg/mL Hygromycin B, 500 μg/mL G418. After the replacement of culture media with assay medium, 5,000 Jurkat-PD-1-SHP cells in 20 μL were dispensed into each well. The assay plate was incubated at 37° C., 5% CO2 for 2 hours before 2.5 μL PathHunter reagent 1 (DiscoveRx Corporation) were added to each well. The assay plate was shaken for 1 min at 350 rpm in the dark followed with addition of 10 μL PathHunter reagent 2 (DiscoveRx Corporation). Chemiluminescent signal was recorded with TopCount reader (Perkin Elmer) after incubation at room temperature for 1 hour. Wells with DMSO were served as the positive controls and wells containing no cells were used as negative controls. IC50 determination was performed by fitting the curve of percentage of control activity versus the log of the compound concentration using the GraphPad Prism 6.0 software.

[5] = molecular target: PD-L1 (Homo sapiens (Human), UniProt Q9NZQ7); assay: PD-L1 whole blood internalization assay; format: cell-based; details: PD-L1 internalization in human whole blood, CD14+ cells, interferon γ, 24 hour
Method: To determine PD-L1 internalization in human whole blood, normal human blood (Biological Specialty Corp, Colmar. Pa.) was incubated in the presence or absence of a concentration range of test compounds and 1 ng/mL human interferon γ (R&D Systems Inc. Minn. […] Blood was then stained with PD-L1 (MIH1, eBioscience; or BD Biosciences San Jose, Calif.), CD14 (Life Technologies, Carlsbad, Calif.) for 30 minutes in the dark at room temperature. Whole Blood/red cells were lysed/fixed (lysis buffer BD Biosciences) for 5 minutes at 37° C. in the dark and then centrifuged at 1600 RPM for 5 minutes. Cells were resuspended in Stain Buffer (BD Bioscience, San Jose, Calif.) and transferred into 96 well round bottom plates (Corning). Cells were gated on CD14+(BD Biosciences) and PD-L1 expression determined by mean fluorescence intensity (MFI) (BD LSRFortessa™ X-20). IC50 determination was performed by fitting the curve of compound percent inhibition versus the log of the compound concentration using the GraphPad Prism 7.0 software.

[6] = male, Sprague-Dawley, plasma, 1.0 mg/kg IV
[7] = male, Sprague-Dawley, plasma, read-out: AUC0-inf

Chain of PD-1/PD-L1 (Q9NZQ7 19-238): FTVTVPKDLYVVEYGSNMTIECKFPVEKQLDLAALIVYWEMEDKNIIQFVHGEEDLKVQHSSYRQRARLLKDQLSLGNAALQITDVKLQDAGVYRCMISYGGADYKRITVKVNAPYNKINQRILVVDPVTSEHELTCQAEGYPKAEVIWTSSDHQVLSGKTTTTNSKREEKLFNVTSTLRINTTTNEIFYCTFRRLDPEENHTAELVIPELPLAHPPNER
Chain of PD-L1 (Q9NZQ7 19-290): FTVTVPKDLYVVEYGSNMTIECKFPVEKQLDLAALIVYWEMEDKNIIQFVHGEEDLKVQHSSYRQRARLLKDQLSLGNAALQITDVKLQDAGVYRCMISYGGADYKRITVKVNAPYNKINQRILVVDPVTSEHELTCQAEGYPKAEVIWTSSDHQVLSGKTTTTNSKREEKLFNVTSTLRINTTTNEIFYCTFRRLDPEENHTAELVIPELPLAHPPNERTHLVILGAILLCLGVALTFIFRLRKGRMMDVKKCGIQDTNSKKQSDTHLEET

Compound | EC50 [1] [nM] | Cl ([2]; 1.0 mg/kg IV) [mL/min/kg] | Vss ([2]; 1.0 mg/kg IV) [L/kg] | t1/2 ([2]; 1.0 mg/kg IV) [h] | AUC(0-inf) [2] [µM·h] | Cmax [2] [nM] | F [2] [%] | IC50 [3] [nM] | IC50 [4] [nM] | IC50 [5] [nM] | EC50 ([1]; Cricetulus griseus, CHO-K1) [nM] | half-life [2, 6] [h] | Vd [2, 6] [L/kg] | Cmax ([2]; male, Sprague-Dawley, plasma) [nM] | AUC(0-inf) [2, 7] [µM·h] | IC50 ([4]; Homo sapiens, U2OS) [nM] | clearance [2, 6] [mL/min/kg]
Cn1c(C(=O)Nc2cccc(-c3cccc(NC(=O)c4nc5c(n4C)CCN(CC46CCC(C(=O)O)(CC4)C6)C5)c3Cl)c2Cl)nc2c1CCN(CCO)C2 [Example 180] | 30 | 26.2 | 2.48 | 2.21 | 0.956 | 231 | 38 | 1.5 | 4.4 | 166 | – | – | – | – | – | – | –
Cc1c(-c2nc3cc(CN4CC[C@@H](O)C4)cc(C#N)c3o2)cccc1-c1cccc(NC(=O)c2nc3c(n2C)CCN(CC24CCC(C(=O)O)(CC2)C4)C3)c1Cl [Example 267] | – | – | – | – | – | – | 12 | 2.3 | – | 121 | 39 | 3.28 | 2.22 | 108 | 0.687 | 7.8 | –
Cc1c(-c2nc3cc(CN4CC[C@@H](O)C4)cc(C#N)c3o2)cccc1-c1cccc(NC(=O)c2nc3c(n2C)CCN(CCC2CCC(C(=O)O)CC2)C3)c1Cl (stereo partly shown) [Example 265] | – | – | – | – | – | – | 8 | 2.3 | – | 62 | 15 | – | 4.45 | 57 | 0.398 | 4.9 | 63.7
Cc1c(NC(=O)c2nc3c(n2C)CCN(CC24CCC(C(=O)O)(CC2)C4)C3)cccc1-c1cccc(NC(=O)c2nc3c(n2C)CCN(C)C3)c1Cl [Example 102] | – | – | – | – | – | – | 39 | 2.4 | – | 149 | 76 | 1.9 | 1.96 | 398 | 1.5 | 4.9 | 19
CN1CCc2c(nc(C(=O)Nc3cccc(-c4cccc(NC(=O)c5nc6c(n5C)CCN(CC57CCC(C(=O)O)(CC5)C7)C6)c4Cl)c3Cl)n2C)C1 [Example 84] | – | – | – | – | – | – | 28 | 8.3 | – | 97 | 47 | 3.47 | 2.45 | 234 | 1.2 | 6.9 | 16.5
Cc1c(NC(=O)c2nc3c(n2C)CCN(CCC24CCC(C(=O)O)(CC2)C4)C3)cccc1-c1cccc(Nc2nc(C(F)F)nc3cc(CN4CC[C@](C)(O)C4)cnc23)c1C [Example 16, (S)-4-(2-(2-((3′-((2-(difluoromethyl)-7-((3-hydroxy-3-methylpyrrolidin-1-yl)methyl)pyrido[3,2-d]pyrimidin-4-yl)amino)-2,2′-dimethyl-[1,1′-biphenyl]-3-yl)carbamoyl)-1-methyl-1,4,6,7-tetrahydro-5H-imidazo[4,5-c]pyridin-5-yl)ethyl)bicyclo[2.2.1]heptane-1-carboxylic Acid] | – | – | – | – | – | – | – | 1.7 | – | 53 | 6 | – | – | – | – | 2.4 | –
Cc1c(Nc2nc(C(F)F)nc3cc(CN4C[C@H](O)C[C@H]4C)cnc23)cccc1-c1cccc(NC(=O)c2nc3c(n2C)CCN(CCC24CCC(C(=O)O)(CC2)C4)C3)c1Cl [Example 11, 4-(2-(2-((2-chloro-3′-((2-(difluoromethyl)-7-(((2R,4R)-4-hydroxy-2-methylpyrrolidin-1-yl)methyl)pyrido[3,2-d]pyrimidin-4-yl)amino)-2′-methyl-[1,1′-biphenyl]-3-yl)carbamoyl)-1-methyl-1,4,6,7-tetrahydro-5H-imidazo[4,5-c]pyridin-5-yl)ethyl)bicyclo[2.2.1]heptane-1-carboxylic Acid] | – | – | – | – | – | – | – | 1.5 | – | 27 | 5 | – | – | – | – | 3 | –
C[C@H](O)CN1CCc2c(nc(C(=O)Nc3cccc(-c4cccc(NC(=O)c5nc6c(n5C)CCN(CC57CCC(C(=O)O)(CC5)C7)C6)c4Cl)c3Cl)n2C)C1 [Example 181, reference compound] | – | – | – | – | – | – | – | 1.6 | – | 161 | 41 | – | – | – | – | 6.1 | –
C[C@@H](O)CN1CCc2c(nc(C(=O)Nc3cccc(-c4cccc(NC(=O)c5nc6c(n5C)CCN(CC57CCC(C(=O)O)(CC5)C7)C6)c4Cl)c3Cl)n2C)C1 [Example 182, reference compound] | – | – | – | – | – | – | – | 1.7 | – | 92 | 30 | – | – | – | – | 4.4 | –
